From patent US7507395B2, “Methods of using fluorescent pH indicators for intracellular assays” (MDS Analytical Technologies (US) Inc., priority 2001, dated 2009)

Assays:
[1] = background statement; cited from earlier work
[2] = pH buffer series, final concentration 1.0 μM, Gemini XS fluorescence plate reader
Source text: The excitation and emission spectra of the aqueous solutions are obtained with a Gemini XS fluorescence plate reader (Molecular Devices Corporation; Sunnyvale, Calif.).

M1CHO cells [3] = test: Pirenzapine inhibition of carbachol-mediated stimulation of M1CHO cells (intracellular pH); format: cell-based; details: pirenzapine 0.1, 0.3, 1.0 μM, carbachol 1 μM
Procedure: M1CHO Cells, 50,000, in 40 μL are seeded and incubated at 37° C., 5% CO2 overnight in a 96-well microplate. To each well is added 10 μL of the Loading Buffer (as described in Examples 19 and 20) including a fluorescein diacetate compound of the invention and a nonfluorescent quenching dye. After 45 min at room temperature 5 μL of 220 mM ammonium chloride, in combination with pirenzapine to a final concentration of 0.0 μM, 1.0 μM, 0.3 μM, and 0.1 μM. […] A drop in fluorescence signal is observed at time=10 to 20 seconds, corresponding to a drop in signal due to the increased acidification of the cells. The low pH stimulates the Na^+/H^+ exchange pump.

M1CHO cells [4] = test: Effect of increasing concentrations of carbachol on M1CHO cells (intracellular pH); format: cell-based; details: carbachol 6.7 μM or 0 μM, after ammonium chloride
Procedure: M1CHO cells, 50,000, in 40 μL were seeded and incubated at 37° C., 5% CO2 overnight in a 96-well microplate. To each well is added 10 μL of the Loading Buffer (as described in Examples 19 and 20) including a fluorescein diacetate compound of the invention and a nonfluorescent quenching dye. After 45 min at room temperature, 5 μL of 220 mM ammonium chloride is added. […] A drop is fluorescence signal is observed at time=10 to 20 seconds due to the increased acidification of the cells. The low pH stimulates the Na^+/H^+ exchange pump.
For Compounds 19 and 20, emission is monitored at 550 nm and excitation is monitored at 505 and 470 nm.

MCF7/ADR cells = test: Drug Resistance Assay: insulin on MCF7/ADR cells (intracellular pH); format: cell-based; details: 0.003-150 nM insulin, after NH4Cl acid load, FIG. 6
Procedure: MCF7/ADR cells are MCF7 mammary gland adenocarcinoma selected for adriamycin resistance. These cells are propagated and maintained in DMEM medium containing 5% FCS, 1× Pen/Strep, 2 mM L-glutamine, and non-essential amino acids. The assay is performed according to the following procedure.
The cells are then incubated in a 37° C. CO2 incubator overnight.
A 25 mM stock solution of a Masking Compound is prepared by dissolving an appropriate amount of the desired Masking Compound in 10 mL water.
The cell plate is removed from the incubator, and all wells are washed once with 1× Assay Buffer, leaving 40 μL of buffer in each well. The cell plate is then incubated at 37° C. for at least 4 hours.
A stock solution of insulin is prepared by dissolving 1 mg of insulin in 1 mL of 1 M HCl to a concentration of 174 μM. A 5 μL aliquot of the insulin stock solution is diluted with 4,574 μL H+H/2 mM probenecid/0.1% BSA solution (190 nM stock, 150 nM final concentration). Three-fold dilutions are performed 11 times to obtain final concentrations of 0.003, 0.008, 0.02, 0.07, 0.2, 0.6, 1.9, 5.6, 17, 50, and 150 nM, respectively.

CHO/CCR5/Galphaqi5 cells = test: Effect of increasing concentrations of RANTES on CHO/CCR5/Galphaqi5 cells (intracellular pH); format: cell-based; details: RANTES 2-500 nM, after ammonium chloride
Procedure: CHO/CCR5/Galphaqi5 cells, 80,000, in 40 μL are seeded and incubated at 37° C., 5% CO2 overnight in a 96-well microplate. To each well is added 10 μL of Loading Buffer (as described in Examples 19 and 20) including a fluorescein diacetate compound of the invention and a nonfluorescent quenching dye. After 45 min at room temperature 5 μL of 220 mM ammonium chloride is added. Following an additional 15 min incubation at room temperature, 200 μL of buffer containing RANTES to a final concentration of 500, 167, 56, 19, 6, 2, or 0 nM is added using the fluidics module on a fluorescence microplate reader (10 seconds after the start of the experiment) and fluorescence readings are recorded. A drop in fluorescence signal is observed at time=10 to 20 seconds, corresponding to an increased acidification of the cells. The low pH stimulates the Na+/H+ exchange pump.

Q: For “2′,7′-bis-(2-carboxyethyl)-5-(and-6)-carboxyfluorescein [BCECF]”, which pKa [1] is on record?
A: 7.0

Q: With “2′,7′-diethyl-5-(or 6-)carboxyfluorescein [Compound 4]” as the molecule, how does the “calculated pKa (acid dissociation constant)” value [2] read?
A: 6.96

Q: For `CN1CCN(CC(=O)N2c3ccccc3C(=O)Nc3cccnc32)CC1` [Pirenzapine], which “effect on carbachol-mediated stimulation” value (M1CHO cells [3]) is on record?
A: inhibits the carbachol-mediated stimulation

Q: With `C[N+](C)(C)CCOC(N)=O` [carbachol] as the molecule, how does the “activity of the Na+/H+ exchange pump / alkalinization of the cells” value (M1CHO cells [4]) read?
A: increases the activity of the pump, resulting in a greater alkalinization of the cells in a dose:dependent manner

Q: Which “activity of the Na+/H+ exchange pump / alkalinization of the cells” value (MCF7/ADR cells) does the source give for insulin here?
A: increases the activity of the pump, resulting in a greater alkalinization of the cells in a dose-dependent manner

B1: RANTES (protein, UniProt P13501 24-91, looked up)
C-C motif chemokine 5: SPYSSDTTPCCFAYIARPLPRAHIKEYFYTSGKCSNPAVVFVTRKNRQVCANPEKKWVREYINSLEMS
notes: RANTES, added to CHO/CCR5/Galphaqi5 cells at increasing concentrations
Q: With B1 as the molecule, how does the “activity of the Na+/H+ exchange pump / alkalinization of the cells” value (CHO/CCR5/Galphaqi5 cells) read?
A: increases the activity of the pump, resulting in a greater alkalinization of the cells in a dose:dependent manner
